US9751840B2, “R-7-(3-aminomethyl-4-methoxyimino-3-methyl-pyrrolidin-1-yl)-1-cyclopropyl-6-fluoro-4-oxo-acid and L-aspartic acid salt, process for the preparation thereof and pharmaceutical composition comprising the same for antimicrobial” (ARIBIO CO. LTD., priority 2009, dated 2017)
Converted amounts (≈) assume the structure as drawn.

How the values were obtained:
Solubility test = assay type: physicochemical; settings: room temperature, water
[1] = Stability test in distilled water; assay type: physicochemical; settings: 30 mg in 100 ml distilled water
Male ICR mice = assay: Single dose toxicity in mice (LD50); settings: single intraperitoneal dose, observed 14 days
Method: The following experiment was performed in order to observe the degree of toxicity of the L-aspartate according to the present invention.
Male ICR mice were used as experimental animals. 5 male ICR mice were divided into 6 dose groups, respectively and fasted except for water for 24 hours.

SMILES	solubility (Solubility test)	Content (%) 60? (after 3 weeks) [1]	Content (%) Initial [1]	Content (%) Room temperature (after 3 weeks) [1]	Lethal dose 50 (Male ICR mice)
CON=C1CN(c2nc3c(cc2F)c(=O)c(C(=O)O)cn3C2CC2)C[C@@]1(C)CN.Cc1ccc(S(=O)(=O)O)cc1	5.78 mg/mL	87.3%	98.6%	98.1%	–
CON=C1CN(c2nc3c(cc2F)c(=O)c(C(=O)O)cn3C2CC2)C[C@@]1(C)CN.O=CO [Formate (Comparative Example 5)]	27.5 mg/mL	75.1%	89.7%	89.7%	–
CON=C1CN(c2nc3c(cc2F)c(=O)c(C(=O)O)cn3C2CC2)C[C@@]1(C)CN [Free form (Comparative Example 2)]	2.79 mg/mL (≈ 6.92 mM)	34.6%	97.3%	96.8%	–
CON=C1CN(c2nc3c(cc2F)c(=O)c(C(=O)O)cn3C2CC2)C[C@@]1(C)CN.CS(=O)(=O)O [Methanesulfonate (Comparative Example 4)]	99.1 mg/mL	89.6%	96.4%	96.8%	–
CON=C1CN(c2nc3c(cc2F)c(=O)c(C(=O)O)cn3C2CC2)C[C@@]1(C)CN.O=P(O)(O)O [Phosphate (Comparative Example 6)]	57.8 mg/mL	91.2%	98.1%	97.9%	176 mg/kg
